Experimental data reported in ChEMBL document CHEMBL5500364, “Design, synthesis, and biological evaluation of some 2-(3-oxo-5,6-diphenyl-1,2,4-triazin-2(3H)-yl)-N-phenylacetamide hybrids as MTDLs for Alzheimer's disease therapy” (Eur J Med Chem, 2024).
Activity calls are given as the source filed them. The calls are words filed in the database; no cut-off is given here.

Key:
[1] = Acute toxicity in Wistar rat assessed as effect on kidney appearance at 500 to 1000 mg/kg, po administered for 14 days by histopathological analysis; format: organism-based; details: in vivo, 336 h, dose 500-1000 mg/kg, time 14 day
[2] = Acute toxicity in Wistar rat assessed as effect on kupffer cells appearance in liver at 500 to 1000 mg/kg, po administered for 14 days by histopathological analysis; format: organism-based; details: in vivo, 336 h, dose 500-1000 mg/kg, time 14 day
[3] = Acute toxicity in Wistar rat assessed as effect on heart tissue at 500 to 1000 mg/kg, po administered for 14 days by histopathological analysis; format: organism-based; details: in vivo, 336 h, dose 500-1000 mg/kg, time 14 day
[4] = system: Rattus norvegicus; assay: Reversal of amyloid beta (1 to 42 residues) induced cognitive impairment in Wistar rat assessed as reduction in appearance of pyknotic neuron bodies in hippocampus at 2.5 to 10 mg/kg, po pretreated with amyloid beta for 7 days followed by compound administration for 9 days and measured after 5 days by Nissl's staining based analysis; format: functional, organism-based; details: dose 2.5-10 mg/kg, time 14.0 day
[5] = system: Drosophila; assay: Neuroprotective activity in ey-GAL4>UAS-amyloid beta (1 to 42) induced cellular toxicity in Oregon R-positive Drosophila model assessed as rescue in eye phenotype at 20 uM by Stereo zoom microscopic imaging analysis relative to control; format: functional
[6] = Cmax in male Wistar rat at 10 mg/kg, po measured after 72 hrs by HPLC analysis; format: ADME, organism-based; details: in vivo

**Q.** With COc1cc(NC(=O)Cn2nc(-c3ccccc3)c(-c3ccccc3)nc2=O)cc(OC)c1 as the molecule, how does the Activity [1] read?
**A.** Its Activity is “Non-Toxic”.

**Q.** And the Activity [2]?
**A.** Its Activity is “Non-Toxic”.

**Q.** What about the Activity [3] of the same molecule?
**A.** The Activity was “Non-Toxic”.

**Q.** What about the Activity [4] of the same molecule?
**A.** The Activity was “Active”.

**Q.** And the Activity [5]?
**A.** The Activity was 57%.

**Q.** What about the Cmax [6] of the same molecule?
**A.** Its Cmax is 355 ng/mL.
